“Also recorded” adds a separate entry of the source. Read-outs that look alike come from different tables or passages of the source. The star is where a group is joined. Myristoyl = CCCCCCCCCCCCCC(=O)*
Tests used:
[1] = tested on: CREB phosphorylation in hippocampal pyramidal neurons; assay: CREB phosphorylation; assay type: cell-based, rat (Sprague-Dawley, 1- to 2-d-old pups); conditions: for concentrations inducing pCREB signal statistically different from vehicle: CRF F5,184 = 36.59, P < 0.001, UCN F5,175 = 23.00, P < 0.001; for τ of pCREB increase (time course): CRF df = 128, R^2 = 0.58, UCN df = 193, R^2 = 0.3, nonlinear curve fit
CRFR1 [2] = conditions: modified yeast cell screen; ref Ladds et al., 2003; cited from earlier work
CRFR1α = conditions: stably transfected cell lines; ref Grammatopoulos et al., 2000; cited from earlier work
[3] = tested on: MAPK signaling in human myocytes; conditions: UCN, but not CRF, ref Grammatopoulos et al., 2000; cited from earlier work
[4] = tested on: cAMP in hippocampal pyramidal neurons; assay: cAMP assay; assay type: cell-based, rat (Sprague-Dawley, 1- to 2-d-old pups); conditions: ISO 10 μM, 15 min, with IBMX 75 μM; positive control; P < 0.001 vs. '0 min'
[5] = tested on: CREB phosphorylation in hippocampal neurons; conditions: 10 μM H89, hippocampal neurons; ref Bayatti et al., 2003; cited from earlier work
CRFR1 [6] = conditions: read-out: Ki for CRFR1, ref Perrin et al., 1993; cited from earlier work
hippocampal neurons = conditions: 2002, cited from earlier work

Compound: rat urocortin I [UCN]
- concentrations inducing pCREB signal statistically different from vehicle [1]: ≥ 40 nM
- τ of pCREB increase (time course) [1]: ~ 7 min
- CRFR1-dependent G protein activation (CRFR1 [2]): CRFR1-dependent activation of Gαq
- cAMP activation, CRF compared with UCN (CRFR1α): induce cAMP activation equally
- activation of MAPK signaling [3]: activates MAPK signaling

Compound: CC(C)NCC(O)c1ccc(O)c(O)c1 (stereo not shown) [ISO, isoproterenol]
- cAMP increase [4]: significantly increased cAMP levels

Compound: COc1cccc(-c2cc(=O)c3ccccc3o2)c1N [PD98059]
- effect on CRF-induced CREB phosphorylation ([1]; PD98059 25 μM, CRF 40 nM, F3,86 = 30.25, P > 0.05): failed to affect; also recorded: unaffected
- effect on STR-induced CREB phosphorylation ([1]; PD98059 (25 μM), STR (70 nM), F3,122 = 51.88, P > 0.05, data not shown): unaffected
- effect on UCN-induced CREB phosphorylation ([1]; PD98059 (25 μM), UCN 40 nM, F3,126 = 31.29, P < 0.001): attenuated; also recorded: attenuated, but did not block

Compound: CCCCN(CC)c1nc(C)nc2c1c(C)cn2-c1c(C)cc(C)cc1C [CP154526]
- effect on STR-induced CREB phosphorylation ([1]; CP154526 (100 nM) with STR 70 nM, F3,117 = 55.29, P < 0.001): blocked

Compound: O=C1OC2(c3ccccc31)c1ccc(O)c(O)c1Oc1c2ccc(O)c1O [gallein]
- effect on CRF-induced CREB phosphorylation ([1]; gallein 75 μM, CRF 40 nM, 15 min, F3,117 = 30.17, P < 0.001): blocked
- effect on UCN-induced CREB phosphorylation ([1]; gallein 75 μM, UCN 40 nM, 15 min, F3,118 = 21.74, P < 0.001): blocked

Compound: N#CC(=C(/N)Sc1ccccc1N)/C(C#N)=C(/N)Sc1ccccc1N [U0126]
- effect on CRF-induced CREB phosphorylation ([1]; U0126 10 μM, CRF 40 nM, F3,78 = 18.69, P > 0.05): failed to affect; also recorded: unaffected
- effect on STR-induced CREB phosphorylation ([1]; U0126 (10 μM), STR (70 nM), F3,126 = 43.18, P > 0.05, data not shown): unaffected
- effect on UCN-induced CREB phosphorylation ([1]; U0126 (10 μM), UCN 40 nM, F3,128 = 28.68, P < 0.001): attenuated; also recorded: attenuated, but did not block

Compound: Nc1ncnc2c1ncn2C1CCCO1 (stereo not shown) [SQ22536]
- effect on CRF-induced CREB phosphorylation ([1]; SQ22536 90 μM, CRF 40 nM, F3,83 = 22.02, P > 0.05): no effect; also recorded: failed to affect
- effect on UCN-induced CREB phosphorylation ([1]; SQ22536 90 μM, UCN 40 nM, F3,113 = 25.34, P > 0.05): no effect; also recorded: failed to affect

Compound: O=S(=O)(NCCNC/C=C/c1ccc(Br)cc1)c1cccc2cnccc12 [H89]
- involvement of PKA in CRF-induced CREB phosphorylation [5]: implicated PKA in CRF-induced CREB phosphorylation
- effect on CRF-induced CREB phosphorylation ([1]; H89 2 μM, CRF 40 nM, F3,105 = 44.94, P > 0.05): did not block; also recorded: failed to block
- effect on UCN-induced CREB phosphorylation ([1]; H89 2 μM, UCN 40 nM, F3,118 = 27.19, P > 0.05): failed to block; also recorded: did not block

Compound: human/rat corticotropin releasing factor [CRF]
- Ki (CRFR1 [6]): 5.2 to 11 nM
- concentrations inducing pCREB signal statistically different from vehicle [1]: ≥ 40 nM
- τ of pCREB increase (time course) [1]: ~ 10 min
- cAMP activation, CRF compared with UCN (CRFR1α): induce cAMP activation equally
- effect on hippocampal neuron excitability (hippocampal neurons; ref Aldenhoff et al., 1983, Blank et al.): rapidly increases hippocampal neuron excitability
- effect on hippocampal LTP (hippocampal neurons; ref Blank et al.): enhances hippocampal LTP

Compound: cholera toxin [CTX]
- effect on CRF-induced CREB phosphorylation [1]: abolished; also recorded: blocked
- effect on UCN-induced CREB phosphorylation [1]: abolished; also recorded: blocked

Compound: pertussis toxin [PTX]
- effect on UCN-induced CREB phosphorylation ([1]; PTX 500 ng/mL, 18 hr pre-treatment, UCN 40 nM, F3,116 = 40.60, P > 0.05): did not affect

Compound: PKI 14-22 amide myristoylated: second PKA inhibitor (Myristoyl-SGRTGRRNA-NH2; SMILES CCCCCCCCCCCCCC(=O)N[C@@H](CO)C(=O)NCC(=O)N[C@@H](CCCNC(=N)N)C(=O)N[C@H](C(=O)NCC(=O)N[C@@H](CCCNC(=N)N)C(=O)N[C@@H](CCCNC(=N)N)C(=O)N[C@@H](CC(N)=O)C(=O)N[C@@H](C)C(N)=O)[C@@H](C)O; UniProt P61925 14-22, looked up, fragment)
- effect on CRF-induced CREB phosphorylation ([1]; PKI 14-22 amide myristoylated 1 μM, CRF 40 nM, F3,133 = 38.91, P > 0.05, data not shown): failed to block
- effect on UCN-induced CREB phosphorylation ([1]; PKI 14-22 amide myristoylated 1 μM, UCN 40 nM, F3,113 = 39.24, P > 0.05, data not shown): failed to block
